Like-named read-outs stand apart in the source and are kept apart here.

The record followed here is patent US20180228815A1, “NARINGENIN AND ASIATIC ACID COMBINATION TREATMENT OF CANCERS” (The Chinese University of Hong Kong, priority 2016, published 2018).

Data set [1] is classed as in vivo. The procedure: FIG. 1. Determination of a safe dosage of AA or NG in normal mice. Groups of 4 normal mice were treated with different dosages of asiatic acid (AA) or naringenin (NG) for two weeks and various parameters were measured to determine a safe dosage for the use as therapeutic dose in cancer-bearing mice. As indicated by a highlighted box, AA at 10 mg/kg and NG at 50 mg/kg was selected. Each bar represents the mean±SEM for groups of 4 mice. * p<0.05, ** p<0.01 compared to untreated mice (BLK)
A safe dosage of HLPC-purified naringenin (NG) and asiatic acid (AA) was first determined in normal mice by peritoneal injection with different dosages of AA or NG for toxicity assays and a dose of AA at 10 mg/kg body weight and NG at 50 mg//Kg body weight is selected for further examination of the therapeutic efficacy on cancer (FIG. 1). The effects of combined use of a safe dosage of naringenin (NG, 10 mg/kg) and asiatic acid (AA, 50 mg/kg) at a ratio of […] was selected and the therapeutic effect on cancer was tested in two syngeneic mouse models of invasive lung carcinoma (LLC) and melanoma (B16F10). […] Thus, the combination of NG and AA presents as a new emerging and promising therapy for tumor.

Data set [2] in a line: Systemic toxicity in B16F10 melanoma-bearing mice. Conditions: mouse, in vivo. The text has this: FIG. 5. […] Each bar represents the mean±SEM for groups of 6 mice.
A further data set has as its system NK1.1+ NK cells. Kind of data set: Two-color immunofluorescence of IFN-γ+ and granzyme B+ NK cells in LLC tumor microenvironment. The format is in vivo, mouse. The protocol: FIGS. 13A-13G. […] NK1.1+ cells (green), IFN-γ+ or granzyme B+ cells (red), DAPI (blue). Each error bar represents the mean±SEM for groups of three to four mice. * p<0.05, ** p<0.01, *** p<0.001 compared to Ctrl; ## p<0.01, ### p<0.001 as indicated. Scale bar, 100 μm. […] (FIGS. 13E, 13F) Effect of AA (10 μmol), NG ([…]), and their combination on levels of IFN-γ and granzyme B in supernatant of cultured splenic NK cells with TGF-β1 (5 ng/ml) detected by ELISA. (FIG. 13G) NK cell cytotoxicity assay with LLC as target cells at E:T ratio of 5:1, 10:1 and 20:1. Each error bar represents the mean±SEM for groups of three independent experiments. * p<0.05, ** p<0.01, *** p<0.001 compared to TGF-β1; # p<0.05, ## p<0.01, ### p<0.001 as indicated. Immunofluorescence staining was performed with 5 μm PLP fixed frozen sections of mouse tumor tissue to detect NK cell infiltration in tumor microenvironment and the protein levels of p-Smad3, Smad7, IFN-γ and granzyme B in these tumor infiltrated NK cells. Primary antibodies used for immunofluorescence staining include Alexa488 conjugated anti-mouse NK-1.1 (Biolegend, CA, USA), PE conjugated anti-mouse NKp46 (eBioscience Inc., CA, USA), anti-p-Smad2/3 (Santa Cruz Biotechnology, Santa Cruz, Calif.), anti-Smad7, anti-interferon gamma and anti-granzyme B (Abcam, MA, USA). All slides were mounted with DAPI containing mounting medium then analyzed with fluorescence microscope (Leica Microsystems, Wetzlar, Germany).

The next data set relates to B16F10 melanoma cells. The data set is described as follows: NK cell cytotoxicity assay (LDH release). The format is cell-based, mouse. Conditions: E:T ratio of 5:1, 10:1 and 20:1. The procedure: It was next assessed whether the combination therapy enhances the tumor-killing capacity of NK cells by co-culturing […] NK cells with B16F10 melanoma cells at ratio of 5:1, 10:1 and 20:1. […] B16F10 melanoma cells were harvested as target cells and bone marrow-derived NK cells treated with AA or NG for 24 hours were harvested as effector cells. Cells were thoroughly washed and seeded in 96-well plates at the effector: target (E:T) ratios of 5:1, 10:1 and 20:1. Incubated in 5% CO2 incubator at 37° C. for 6 hours then detect the LDH release of each well with CytoTox 96® Non-Radioactive Cytotoxicity Assay kit (Promega Corporation, WI, USA). Read absorbance at 490 nm and calculated the percentage of NK cell mediated cytotoxicity with the following formula.
In general terms: LDH leaks from cells whose membrane has failed.

The test system of data set [3] is bone marrow-derived NK cells. The data set is described as follows: Flow cytometry of bone marrow-derived NK cell differentiation (NK1.1+ CD122+). Conditions: TGF-β1 (5 ng/ml). The format is cell-based, mouse. The procedure: FIGS. 15A-15B. Combination of AA and NG attenuates TGF-β1 induced inhibition on NK cell differentiation. […] (FIG. 15B) Flow cytometry detects that the effect of AA, NG, and their combination on bone marrow-derived NK differentiation in response to TGF-β1 (5 ng/ml). Each error bar represents the mean±SEM for groups of three independent experiments. *** p<0.001 compared to TGF-β1; ### p<0.001 as indicated.
After euthanasia, bone marrow cells were isolated from C57BL/6 mice following the protocol as previously described (10). Bone marrow cells were then seeded at the density of 1×10^6 cells/ml in MEMα medium (Gibco, Thermo Fisher Scientific Inc., MA, USA) containing 10% FBS supplemented with 1 ng/ml IL-7, 10 ng/ml Flt3L, 30 ng/ml SCF, 50 ng/ml IL-15 (Peprotech, NJ, USA) and […] β-Mercaptoethanol (Gibco, Thermo Fisher Scientific Inc., MA, USA) and cultured for 4 days. Then transferred cells to MEMα medium containing 10% FBS supplemented with 50 ng/ml IL-15, 20 ng/ml IL-2 and […] β-Mercaptoethanol to induce NK cells maturation for another 3 days.
Peripheral blood NK cells and cultured NK cells were analyzed using various markers as previously described (10), including rat anti-mouse CD16/CD32 antibody (BD Pharmingen, BD Biosciences, CA, USA), APC-conjugated anti-mouse NK1.1, PE-conjugated anti-mouse NKp46, PE-conjugated anti-mouse CD122 (eBioscience Inc., CA, USA) and Alexa 488-conjugated anti-mouse/human CD11b Antibody (Biolegend, CA, USA). After immunostaining, cells were resuspended with 200 μl staining buffer and analyzed with BD Accuri™ C6 Cytometer (BD Biosciences, CA, USA).
(Flow cytometry measures light scatter and fluorescence of single cells or particles in a stream.)

For `O=C1CC(c2ccc(O)cc2)Oc2cc(O)cc(O)c21` (stereo not drawn) [NG, 5,7-dihydroxy-2-(4-hydroxyphenyl)chroman-4-one], in data set [1] (normal mice treated for two weeks, groups of 4), the “safe dosage selected for use as therapeutic dose” value is recorded as 50 mg/kg. The “systemic toxicity (peripheral white blood cell counts, serum LDH, AST and ALT, creatinine)” value in data set [2] is reported as “do not cause systemic toxicity”. For the same molecule, in the data set with NK1.1+ NK cells, the “IFN-γ-producing NK cells (IFN-γ+ NK1.1+ cells)” value is on record as “significantly increased” and the “granzyme B-secreting NK cells (GB+ NK1.1+ cells)” value is listed as “significantly increased”. In addition, the “NK cell-mediated cytotoxicity against melanoma cells” value in the data set on B16F10 melanoma cells is listed as “increased”. Besides, the “inhibitory effect of TGF-β1 on NK cell development (NK1.1+ CD122+)” value in data set [3] is recorded as “moderately attenuated”.
As for `C[C@H]1[C@H](C)CC[C@]2(C(=O)O)CC[C@]3(C)C(=CC[C@@H]4[C@@]5(C)C[C@@H](O)[C@H](O)[C@@](C)(CO)[C@@H]5CC[C@]43C)[C@H]12` [AA, Asiatic acid], the “safe dosage selected for use as therapeutic dose” value in data set [1] (mouse, in vivo, 2 weeks) is given as 10 mg/kg. Further, the “systemic toxicity (peripheral white blood cell counts, serum LDH, AST and ALT, creatinine)” value in data set [2] was “do not cause systemic toxicity”. Also, in the data set with NK1.1+ NK cells, the “IFN-γ-producing NK cells (IFN-γ+ NK1.1+ cells)” value is “significantly increased” and the “granzyme B-secreting NK cells (GB+ NK1.1+ cells)” value is “significantly increased”. The “NK cell-mediated cytotoxicity against melanoma cells” value in the data set with B16F10 melanoma cells is listed as “increased”. Moreover, the “inhibitory effect of TGF-β1 on NK cell development (NK1.1+ CD122+)” value in data set [3] was “moderately attenuated”.
